Source: article PMC4010227 (Journal of computer-aided molecular design, 2010)

Molecular target: F508del-CFTR (Homo sapiens, UniProt P13569, DEL508-508)
Experiment: Ussing chamber short-circuit current, acute cumulative dose response
Assay type: cell-based

EC50: < 1 µM
Substance: EPX-108380
